Source: patent US12239733B2, “Treatment of protein aggregation myopathic and neurodegenerative diseases by parenteral administration of trehalose” (Seelos Therapeutics, Inc., priority 2013, dated 2025)
“Also recorded” adds a separate entry of the source.

What was measured:
[1] = Preclinical pharmacokinetic study: plasma and muscle concentrations of trehalose after intravenous bolus (IV) and oral gavage (PO); type: in vivo, male Sprague-Dawley (SD) rats
Method: The plasma and muscle concentrations of trehalose in male Sprague-Dawley (SD) rats was determined after intravenous bolus (IV) and oral gavage (PO) administration.
The study included 42 SD rats (male, 250 to 350 grams in weight, the Shanghai SLAC Laboratory Animal Co. Ltd.). Animals were administered with a volume of 5 ml/kg trehalose formulation (trehalose dihydrate in sterilized water at 200 mg/mL) to achieve a nominal dose of 1 gr/kg, intravenously or orally.
Blood samples were collected after each dose administration and processed for plasma. Muscle samples (hind leg muscle) were collected and homogenized. The concentrations of trehalose in plasma and muscle homogenate samples were analyzed by qualified bioanalytical LC/MS/MS methods.
Plasma concentration data of trehalose was subjected to a non compartmental pharmacokinetic analysis using WinNonlin software program (version 6.3, Pharsight, Mountain View, CA). Zero-time intercept concentration (C0), volume of distribution (Vdss), Clearance (Cl), peak plasma concentrations (Cmax) and the corresponding peak times (Tmax), terminal half-life (T½), mean residence time (MRT) from time zero to the last time point (MRT0-last), MRT from time zero to infinity (MRT0-inf), the area under the plasma concentration-time curve (AUC) from time zero to the last time point (AUC0-last) and AUC from time zero extrapolated to infinity (AUC0-inf) were calculated using the linear/log trapezoidal rule. Nominal sampling times were used to calculate all pharmacokinetic parameters since there was not any deviation larger than 5% between the actual and nominal sampling times.
The values of muscle to plasma concentration and AUC ratio (M/P ratio) were both calculated.

healthy volunteers = conditions: cited from earlier work
[2] = oral (ingested); cited from earlier work
transgenic HD mice = conditions: oral, cited from earlier work
transgenic OPMD mice = conditions: cited from earlier work
[3] = 0.2%-5% trehalose in drinking water, 5-9 weeks

Row | Structure (SMILES) | tolerability in rats ([1]; 1000 mg/kg IV or PO, male SD rats) | AUC0-inf/AUC0-last ([1]; male, Sprague-Dawley, rat, in vivo, iv, 1000 mg/kg) | AUC0-inf ([1]; rat, in vivo, iv, 1000 mg/kg) | plasma concentration of trehalose after oral administration ([1]; rat, in vivo, po) | safety issues reported (healthy volunteers; healthy volunteers, oral doses from 10 to 60 gr) | gastrointestinal effects of high oral amounts (healthy volunteers; oral, exceeding 40-50 gram per day, higher than 50 g a day in humans) | share of ingested trehalose absorbed into the blood stream [2] | motor dysfunction / HD-related motor symptoms (transgenic HD mice; [3]) | polyglutamine / huntingtin aggregates (transgenic HD mice; [3]) | survival (transgenic HD mice; HD mouse model) | OPMD onset, phenotype, aggregate formation, cell death (transgenic OPMD mice; oral trehalose) | aggregation formation and toxicity of mutant PABPN1 in myocytes (transgenic OPMD mice; oral, 2% trehalose in drinking water, 4-6 months)
1 | OC[C@H]1O[C@H](O[C@H]2O[C@H](CO)[C@@H](O)[C@H](O)[C@H]2O)[C@H](O)[C@@H](O)[C@@H]1O [trehalose dihydrate] | well tolerated |  |  |  |  |  |  |  |  |  |  | 
2 | OC[C@H]1O[C@H](O[C@H]2O[C@H](CO)[C@@H](O)[C@H](O)[C@H]2O)[C@H](O)[C@@H](O)[C@@H]1O [trehalose, α-G-glucopyranosyl α-D-glucopyranoside] |  | 100% | 183000 ng·h/g | undetectable | mild abdominal symptoms | frequently cause diarrhea, bloating and discomfort; also recorded: causes diarrhea and bloating | Less than 0.5% | improve motor dysfunction; also recorded: improvement of HD-related motor symptoms | reduce polyglutamine aggregates; also recorded: inhibition of formation of intra-nuclear huntingtin aggregates in the brain and liver | extend survival | delay the OPMD onset, attenuate the disease phenotype, decrease polyalanine protein aggregate formation and decrease cell death | significantly reduce aggregation formation and toxicity of the mutant PABPN1 in myocytes
